# Source: patent US8946201B2, “Methods for inhibiting TGF-β” (Saint Louis University, priority 2007, dated 2015)
# pEC50: −log10 of the molar value.
# Legend:
# PAI-1 expression = test: TGF-β1-induced PAI-1 expression, Northern blot, Mv1Lu cells; format: cell-based, mink; conditions: Mv1Lu cells
# Procedure: (A, B, C, D, E, F) Cells were treated with 50 μg/ml cholesterol (A, B, C, D) and 50 μg/ml LDL (D) at 37° C. for 1 hr or with 1 μM fluvastatin or lovastatin (E) or several concentrations of fluvastatin (F) at 37° C. for 16 hr and then further incubated with increasing concentrations (as indicated) of TGF-β1 (A, B, C, E) or 50 pM TGF-β1 (D,F) for 2 hr. Northern blot analysis of PAI-1 and G3PDH was performed. A representative of a total of three analyses is shown (a). The relative intensities of the transcripts were quantified with a PhosphoImager. The ratio of the relative intensities of PAI-1 and G3PDH transcripts in cells treated without TGF-β1 and cholesterol, LDL or statins on the blot was taken as 1 fold or 100% of PAI-1 expression. The quantitative data from three independent analyses is shown (b). […] (G) Mv1Lu cells stably expressing a luciferase reporter gene driven by the PAI-1 promoter (MLECs-clone 32) were treated with increasing concentrations (as indicated) of cholesterol at 37 EC for 1 hr (a) or with 1 μM lovastatin at 37° C. for 16 hr (b) and then further incubated with 50 pM TGF-β for 7 hr. The luciferase activity in cells treated without cholesterol was taken as 100% (a). […] (H) Cells were incubated with 0.0625 and 0.125 pM TGF-β1 in the presence of increasing concentrations of cholesterol, as indicated. […] The experiments were carried out in triplicate.
# TβR-I and TβR-II [1] = test: 125I-TGF-β1 affinity labeling, CHO-K1 cells; format: cell-based, Chinese hamster; conditions: 1 μM, 37° C. 16 hr, 0.12 untreated
# Procedure: (§1) (A, B, C, D, E, F) Cells were treated with LDL (50 μg protein/ml), VLDL (5 μg protein/ml), HDL (50 μg protein/ml), lipoprotein (a) (10 μg/ml), fluvastatin (F; 1 μM), lovastatin (L; 1 μM), nystatin (Nys; 25 μg/ml), β-CD (β-CD; 8 mM), cholest-4-en-3-one (3-one; 50 μg/ml) or cholesterol (Chol; 50 μg/ml) alone or combination of two. After 1 hr at 37° C. or 16 hr at 37° C. (for fluvastatin and lovastatin), ^125I-TGF-β1 affinity labeling of cell-surface TGF-β receptors was performed at 0° C. ^125I-TGF-β1 affinity-labeled TβR-I and TβR-II were analyzed by 7.5% SDS-PAGE and autoradiography. The relative intensities of TβR-I and TβR-II were quantified with a PhosphoImager. The ratio of ^125I-TGF-β1 binding to TβR-II and TβR-I were estimated. The numbers above the lane sequence denote the ratio of TβR-II/TβR-I.
# After cross-linking, cell lysates were analyzed by 7.5% SDS-PAGE and autoradiography or quantified by a PhosphoImager. For all experiments, cholesterol or cholesterol derivatives were prepared as the stock solution with a concentration of 25 mg/ml in ethanol. The final concentration of ethanol in the medium was 0.2% (by vol.). […]
# TβR-I and TβR-II [2] = test: 125I-TGF-β1 affinity labeling, BAEC; format: cell-based, bovine; conditions: 1 μM, 37° C. 16 hr; BAEC cells; 2.47 untreated
# Procedure: (§2) (B, C, D, E) Cells were treated with increasing concentrations of cholesterol in the presence (C) and absence (B, D, E) of 0.2% β-CD, as indicated. After 1 hr at 37° C., ^125I-TGF-β1 affinity labeling of TβR-I and TβR-II in cells was performed at 0° C. ^125I-TGF-β1 affinity-labeled TβR-I and TβR-II were analyzed by 7.5% SDS-PAGE and autoradiography or quantified with a PhosphoImager. A representative of a total of three analyses is shown (top). The bracket indicates the locations of ^125I-TGF-β affinity-labeled TβR-I and TβR-II. The relative intensities of ^125I-TGF-β1 affinity-labeled TβR-I and TβR-II in cells treated without cholesterol were taken as 100%. The quantitative data from three analyses is shown (bottom).
# as §1
# (§3) After cross-linking, cell lysates were analyzed by 7.5% SDS-PAGE and autoradiography or quantified by a PhosphoImager. For all experiments, cholesterol or cholesterol derivatives were prepared as the stock solution with a concentration of 25 mg/ml in ethanol. The final concentration of ethanol in the medium was 0.2% (by vol.).
# TβR-I and TβR-II [3] = test: Western blot of TβR-I and TβR-II protein levels, Mv1Lu cells; format: cell-based, mink; conditions: 37° C. for 16 hr; versus cholesterol-treated and control cells
# Procedure: Cells grown to near confluence on 12-well cluster dishes were treated with cholesterol or LDL in serum-free DMEM (vol.=0.5 ml/well) at 37° C. for 1 hr. The treated cells were further incubated with 50 or 100 pM TGF-β1 at 37° C. for 30 min (for determining Smad2 phosphorylation) or for 2 hr (for determining TβR-II). Treated cells were lysed and cell lysates were analyzed by 7.5% SDS-PAGE and Western blot analysis using anti-Smad2, anti-P-Smad2, anti-caveolin-1, anti-TβR-I (alk5) or anti-TβR-II antibodies as described previously (30). The antigens on the blots were visualized by using horseradish peroxidase-conjugated anti-rabbit IgG antibody and the ECL system as described (30).
# To determine if cholesterol suppresses TGF-β responsiveness by decreasing the ratio of TGF-β1 binding to TβR-II and TβR-I, we first determined the time course of the effect of cholesterol treatment on the ratio of ^125I-TGF-β1 binding to TβR-II and TβR-I in Mv1Lu cells. These cells were treated with 50 μg/ml cholesterol at 37° C. for several time periods. ^125I-TGF-β1 binding to TGF-β receptors was then determined by affinity labeling using the bifunctional cross-linking agent DSS (disuccinimidyl suberate) followed by 7.5% SDS-PAGE and autoradiography or quantified with a PhosphoImager. […] We then performed analysis of the effect of cholesterol treatment on TGF-β1 binding to TβR-I and TβR-II in several cell types. Mv1Lu, BAEC, and NRK cells were treated for 1 hr with increasing concentrations of cholesterol in the presence and absence of 0.2% β-cyclodextrin (β-CD, which forms water-soluble complexes with cholesterol) at 37° C. The binding of TGF-β1 to TβR-I and TβR-II in these cells was then determined by ^125I-TGF-β1 affinity labeling at 0° C.
# TβR-I and TβR-II [4] = test: 125I-TGF-β1 affinity labeling, Mv1Lu cells; format: cell-based, mink; conditions: 1 μM, 37° C. 16 hr; Mv1Lu cells; 0.88 untreated
# Procedure: (A) Mv1Lu cells were treated with 50 μg/ml cholesterol at 37° C. After several time periods, as indicated, ^125I-TGF-β1-affinity labeling was performed at 0° C. ^125I-TGF-β1 affinity-labeled TGF-β receptors were analyzed by 7.5% SDS-PAGE and autoradiography (a) and quantified with a PhosphoImager. The bracket indicates the locations of ^125I-TGF-β1 affinity-labeled TβR-I and TβR-II. The ratio of ^125I-TGF-β1 binding to TβR-II and TβR-I is plotted against incubation time (b).
# as §2
# The bracket indicates the locations of ^125I-TGF-β1 affinity-labeled TβR-I and TβR-II. The relative intensities of ^125I-TGF-β1-TβR-I and ^125I-TGF-β1-TβR-II complexes, which were quantified with a PhosphoImager, are plotted against TGF-β1 concentrations (bottom).
# as §1
# (G) Mv1Lu cells were treated with 50 μg/ml of cholesterol and cholesterol analogs/derivatives including 25-hydroxycholesterol, 7-dehydrocholesterol (7-DHC), 7-ketocholesterol, 7β, 8β-epoxycholesterol, 7β-hydroxycholesterol, and oxidized 7-dehydrocholesterol (oxy-7DHC). After 1 hr at 37° C., ^125I-TGF-β1 affinity labeling of TGF-β receptors was performed. ^125I-TGF-β1 affinity-labeled TβR-I and TβR-II were analyzed by 7.5% SDS-PAGE and autoradiography. The bracket indicates the locations of ^125I-TGF-β1-affinity-labeled TβR-I and TβR-II. The relative intensities of ^125I-TGF-β1 affinity-labeled TβR-I and TβR-II were determined by a PhosphoImager. The ratios of ^125I-TGF-β1 binding to TβR-II and TβR-I were estimated. The numbers above the lane sequence denote the ratio of TβR-II/TβR-I.
# as §3
compound,measurement,setting,value
"CC(C)n1c(/C=C/C(O)CC(O)CC(=O)O)c(-c2ccc(F)cc2)c2ccccc21 (stereo not drawn) [fluvastatin, reference compound]",enhancement of PAI-1 expression,"PAI-1 expression; 1 μM, 16 hr, 10 pM TGF-β1",3 fold
same,pEC50,"PAI-1 expression; stimulated by 50 pM TGF-β1, read-out: EC50 of enhancement of PAI-1 expression",6.30
same,ratio of TβR-II/TβR-I,TβR-I and TβR-II [1],0.19
same,ratio of TβR-II/TβR-I,TβR-I and TβR-II [2],2.91
same,increase of the total amount of TβR-II,TβR-I and TβR-II [3],~1.5 fold
same,ratio of TβR-II/TβR-I,TβR-I and TβR-II [4],1.3
